Consider two compounds from paper PMC8111447 (Frontiers in Pharmacology, 2021).

Holding throughout (test): Kinase panel (Eurofins)
What all share (format): biochemical
Holding throughout (details): n = 2; for inhibition at 1 µM: at 1 μmol/L; for IC50: read-out: IC50 kinase inhibition

Assay [1] has as its target T1, Met(h) (Homo sapiens, UniProt P08581).
T1 construct: purchased Eurofins
The text has this:
(§1) These receptors have a methionine gatekeeper in their kinase domains, and are related to hyperglycemia in other clinical trials of EGFR TKI, such as Co-1686.

For assay [2], the target named is T2, ALK(h) (Homo sapiens, UniProt Q9UM73).
T2 construct: purchased Eurofins
Text: as §1

In assay [3] the target is T3, MYO3B(h) (Homo sapiens, UniProt Q8WXR4).
T3 construct: purchased Eurofins
T3 sequence (Q8WXR4 1-1341): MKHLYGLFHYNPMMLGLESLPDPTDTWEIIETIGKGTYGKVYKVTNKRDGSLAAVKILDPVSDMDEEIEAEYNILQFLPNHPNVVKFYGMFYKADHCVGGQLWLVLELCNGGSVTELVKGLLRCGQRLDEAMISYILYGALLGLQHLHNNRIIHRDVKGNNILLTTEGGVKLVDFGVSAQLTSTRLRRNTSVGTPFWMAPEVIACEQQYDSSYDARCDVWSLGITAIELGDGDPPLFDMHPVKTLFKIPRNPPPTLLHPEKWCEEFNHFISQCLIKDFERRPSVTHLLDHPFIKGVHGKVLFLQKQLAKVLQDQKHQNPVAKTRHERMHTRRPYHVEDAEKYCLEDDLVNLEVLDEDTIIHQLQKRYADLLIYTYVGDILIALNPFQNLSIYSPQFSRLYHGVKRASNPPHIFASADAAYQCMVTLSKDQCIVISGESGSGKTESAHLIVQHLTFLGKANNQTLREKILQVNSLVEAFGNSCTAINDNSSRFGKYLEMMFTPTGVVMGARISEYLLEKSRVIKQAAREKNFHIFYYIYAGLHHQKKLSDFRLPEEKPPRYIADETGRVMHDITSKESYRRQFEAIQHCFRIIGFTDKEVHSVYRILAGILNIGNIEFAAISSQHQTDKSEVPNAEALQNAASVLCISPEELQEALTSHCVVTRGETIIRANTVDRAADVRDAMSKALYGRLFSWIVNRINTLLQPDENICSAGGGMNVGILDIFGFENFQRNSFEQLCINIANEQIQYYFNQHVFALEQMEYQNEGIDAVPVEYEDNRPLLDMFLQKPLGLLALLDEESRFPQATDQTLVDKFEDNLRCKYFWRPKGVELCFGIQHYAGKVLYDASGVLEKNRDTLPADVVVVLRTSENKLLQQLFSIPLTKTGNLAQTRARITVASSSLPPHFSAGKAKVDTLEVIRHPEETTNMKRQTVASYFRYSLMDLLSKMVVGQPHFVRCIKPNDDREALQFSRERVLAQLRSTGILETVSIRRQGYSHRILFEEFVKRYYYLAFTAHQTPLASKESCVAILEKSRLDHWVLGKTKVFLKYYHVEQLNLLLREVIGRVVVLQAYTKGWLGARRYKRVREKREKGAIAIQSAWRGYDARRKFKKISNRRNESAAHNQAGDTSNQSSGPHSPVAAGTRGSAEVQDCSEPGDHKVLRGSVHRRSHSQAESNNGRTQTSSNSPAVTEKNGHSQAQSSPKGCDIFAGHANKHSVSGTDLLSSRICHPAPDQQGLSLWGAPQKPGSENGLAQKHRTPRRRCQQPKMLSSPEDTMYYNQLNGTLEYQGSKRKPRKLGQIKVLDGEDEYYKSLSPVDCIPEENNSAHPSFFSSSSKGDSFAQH
Text: as §1

For assay [4], the target named is T4, MLCK(h) (Homo sapiens, UniProt Q9H1R3).
T4 construct: purchased Eurofins
Text: as §1

The target of assay [5] is T5, PTK5(h) (Homo sapiens, UniProt P42685).
T5 construct: purchased Eurofins
Text: as §1

The target in assay [6] is T6, HIPK4(h) (Homo sapiens, UniProt Q8NE63).
T6 construct: purchased Eurofins
T6 sequence (Q8NE63 1-616): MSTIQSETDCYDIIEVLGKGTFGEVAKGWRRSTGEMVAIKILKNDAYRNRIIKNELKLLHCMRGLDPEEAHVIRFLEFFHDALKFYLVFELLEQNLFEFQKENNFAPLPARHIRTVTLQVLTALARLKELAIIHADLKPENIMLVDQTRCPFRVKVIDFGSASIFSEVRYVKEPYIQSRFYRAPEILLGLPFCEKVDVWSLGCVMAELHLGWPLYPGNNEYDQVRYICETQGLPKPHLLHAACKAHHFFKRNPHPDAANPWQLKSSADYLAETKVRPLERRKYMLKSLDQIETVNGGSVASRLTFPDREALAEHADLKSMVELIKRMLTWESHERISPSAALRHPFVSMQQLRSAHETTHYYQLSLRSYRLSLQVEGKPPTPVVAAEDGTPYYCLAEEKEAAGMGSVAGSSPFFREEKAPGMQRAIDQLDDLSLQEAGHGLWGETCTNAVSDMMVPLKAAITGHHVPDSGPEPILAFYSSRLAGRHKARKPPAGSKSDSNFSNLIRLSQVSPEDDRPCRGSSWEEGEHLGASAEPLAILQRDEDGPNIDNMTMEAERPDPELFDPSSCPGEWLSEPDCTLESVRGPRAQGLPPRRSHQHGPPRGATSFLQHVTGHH
Text: as §1

The target of assay [7] is T7, TSSK1(h) (Homo sapiens, UniProt Q9BXA7).
T7 construct: purchased Eurofins
T7 sequence (Q9BXA7 1-367): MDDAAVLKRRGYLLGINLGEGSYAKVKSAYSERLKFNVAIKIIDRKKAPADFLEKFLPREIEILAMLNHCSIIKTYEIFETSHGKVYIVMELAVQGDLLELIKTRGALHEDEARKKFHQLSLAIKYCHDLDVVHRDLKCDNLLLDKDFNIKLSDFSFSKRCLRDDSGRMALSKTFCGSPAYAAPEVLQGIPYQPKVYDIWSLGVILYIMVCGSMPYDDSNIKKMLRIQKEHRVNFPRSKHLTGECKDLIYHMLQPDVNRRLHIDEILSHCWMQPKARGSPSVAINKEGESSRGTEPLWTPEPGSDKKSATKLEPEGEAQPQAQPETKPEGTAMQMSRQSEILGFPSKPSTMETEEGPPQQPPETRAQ
Text: as §1

Assay [8] has as its target T8, Fes(h) (Homo sapiens, UniProt P07332).
T8 construct: purchased Eurofins
Text: as §1

In assay [9] the target is T9, Blk(h) (Homo sapiens, UniProt P51451).
T9 construct: purchased Eurofins
Text: as §1

T8 sequence (P07332 whole entry): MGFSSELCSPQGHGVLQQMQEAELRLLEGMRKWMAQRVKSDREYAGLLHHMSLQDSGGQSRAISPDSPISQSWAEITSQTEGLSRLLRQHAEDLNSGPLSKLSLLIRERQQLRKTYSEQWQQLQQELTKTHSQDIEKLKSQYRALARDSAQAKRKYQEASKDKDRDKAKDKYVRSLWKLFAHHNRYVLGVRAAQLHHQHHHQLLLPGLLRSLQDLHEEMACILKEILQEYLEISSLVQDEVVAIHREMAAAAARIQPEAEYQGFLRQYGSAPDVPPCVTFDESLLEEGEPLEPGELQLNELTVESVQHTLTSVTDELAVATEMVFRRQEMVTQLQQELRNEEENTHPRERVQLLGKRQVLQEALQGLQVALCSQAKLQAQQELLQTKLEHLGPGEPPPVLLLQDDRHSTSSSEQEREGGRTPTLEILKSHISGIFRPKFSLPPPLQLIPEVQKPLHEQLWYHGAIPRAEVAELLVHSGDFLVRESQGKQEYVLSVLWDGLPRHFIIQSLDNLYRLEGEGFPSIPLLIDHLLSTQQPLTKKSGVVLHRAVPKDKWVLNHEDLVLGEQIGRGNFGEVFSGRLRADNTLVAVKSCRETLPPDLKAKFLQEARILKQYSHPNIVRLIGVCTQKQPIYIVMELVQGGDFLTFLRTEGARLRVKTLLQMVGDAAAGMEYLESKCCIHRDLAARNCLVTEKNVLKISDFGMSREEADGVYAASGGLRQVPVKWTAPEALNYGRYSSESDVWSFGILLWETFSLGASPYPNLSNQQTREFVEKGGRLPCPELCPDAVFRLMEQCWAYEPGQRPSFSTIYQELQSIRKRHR
T9 sequence (P51451 whole entry): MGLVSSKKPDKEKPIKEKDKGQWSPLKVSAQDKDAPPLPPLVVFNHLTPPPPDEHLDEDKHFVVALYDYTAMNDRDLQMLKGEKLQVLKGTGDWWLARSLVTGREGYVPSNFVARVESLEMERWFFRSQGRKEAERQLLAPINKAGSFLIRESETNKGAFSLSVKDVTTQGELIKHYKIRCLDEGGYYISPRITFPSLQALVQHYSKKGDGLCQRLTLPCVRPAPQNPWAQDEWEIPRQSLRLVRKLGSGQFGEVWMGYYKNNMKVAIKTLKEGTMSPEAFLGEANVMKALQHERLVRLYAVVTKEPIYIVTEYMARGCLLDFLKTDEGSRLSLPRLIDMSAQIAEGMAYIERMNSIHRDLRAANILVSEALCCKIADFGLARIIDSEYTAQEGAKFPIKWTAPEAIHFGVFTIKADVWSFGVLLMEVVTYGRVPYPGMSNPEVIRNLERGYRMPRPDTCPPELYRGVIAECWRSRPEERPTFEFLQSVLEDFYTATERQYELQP
T1 sequence (P08581 25-1390): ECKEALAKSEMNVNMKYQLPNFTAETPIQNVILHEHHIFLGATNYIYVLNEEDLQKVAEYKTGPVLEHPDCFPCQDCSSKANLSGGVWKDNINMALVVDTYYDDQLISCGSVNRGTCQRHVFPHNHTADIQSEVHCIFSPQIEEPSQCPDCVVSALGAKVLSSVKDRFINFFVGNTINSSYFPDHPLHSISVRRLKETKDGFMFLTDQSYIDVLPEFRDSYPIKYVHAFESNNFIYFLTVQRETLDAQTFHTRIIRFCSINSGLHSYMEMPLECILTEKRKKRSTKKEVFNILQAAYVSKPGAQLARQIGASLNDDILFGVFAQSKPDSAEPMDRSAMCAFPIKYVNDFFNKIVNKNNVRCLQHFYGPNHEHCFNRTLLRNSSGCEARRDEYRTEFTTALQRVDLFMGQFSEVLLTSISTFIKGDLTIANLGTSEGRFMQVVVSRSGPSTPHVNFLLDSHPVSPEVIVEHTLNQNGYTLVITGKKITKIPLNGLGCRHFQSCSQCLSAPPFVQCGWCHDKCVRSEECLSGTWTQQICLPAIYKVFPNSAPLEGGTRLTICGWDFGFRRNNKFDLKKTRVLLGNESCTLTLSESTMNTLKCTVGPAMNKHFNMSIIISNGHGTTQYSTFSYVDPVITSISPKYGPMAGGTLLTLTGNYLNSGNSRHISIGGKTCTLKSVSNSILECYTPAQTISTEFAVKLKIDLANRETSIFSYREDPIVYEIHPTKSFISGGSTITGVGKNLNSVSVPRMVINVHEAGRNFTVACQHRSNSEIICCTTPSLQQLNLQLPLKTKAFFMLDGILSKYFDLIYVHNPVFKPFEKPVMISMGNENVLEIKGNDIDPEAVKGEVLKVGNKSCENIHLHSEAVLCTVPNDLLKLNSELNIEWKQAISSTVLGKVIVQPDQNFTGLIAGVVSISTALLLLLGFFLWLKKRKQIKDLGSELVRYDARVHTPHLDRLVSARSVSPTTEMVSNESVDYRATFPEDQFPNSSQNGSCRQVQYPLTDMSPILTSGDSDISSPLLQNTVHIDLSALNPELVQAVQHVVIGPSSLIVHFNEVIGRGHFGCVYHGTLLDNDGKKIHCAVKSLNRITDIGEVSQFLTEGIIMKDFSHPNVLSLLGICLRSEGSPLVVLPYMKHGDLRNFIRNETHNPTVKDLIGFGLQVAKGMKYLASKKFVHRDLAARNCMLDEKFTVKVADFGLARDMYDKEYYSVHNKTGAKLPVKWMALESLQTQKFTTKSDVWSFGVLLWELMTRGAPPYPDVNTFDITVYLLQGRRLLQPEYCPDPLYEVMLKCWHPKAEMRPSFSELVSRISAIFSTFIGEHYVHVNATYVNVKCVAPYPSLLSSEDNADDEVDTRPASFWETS
T2 sequence (Q9UM73 19-1620): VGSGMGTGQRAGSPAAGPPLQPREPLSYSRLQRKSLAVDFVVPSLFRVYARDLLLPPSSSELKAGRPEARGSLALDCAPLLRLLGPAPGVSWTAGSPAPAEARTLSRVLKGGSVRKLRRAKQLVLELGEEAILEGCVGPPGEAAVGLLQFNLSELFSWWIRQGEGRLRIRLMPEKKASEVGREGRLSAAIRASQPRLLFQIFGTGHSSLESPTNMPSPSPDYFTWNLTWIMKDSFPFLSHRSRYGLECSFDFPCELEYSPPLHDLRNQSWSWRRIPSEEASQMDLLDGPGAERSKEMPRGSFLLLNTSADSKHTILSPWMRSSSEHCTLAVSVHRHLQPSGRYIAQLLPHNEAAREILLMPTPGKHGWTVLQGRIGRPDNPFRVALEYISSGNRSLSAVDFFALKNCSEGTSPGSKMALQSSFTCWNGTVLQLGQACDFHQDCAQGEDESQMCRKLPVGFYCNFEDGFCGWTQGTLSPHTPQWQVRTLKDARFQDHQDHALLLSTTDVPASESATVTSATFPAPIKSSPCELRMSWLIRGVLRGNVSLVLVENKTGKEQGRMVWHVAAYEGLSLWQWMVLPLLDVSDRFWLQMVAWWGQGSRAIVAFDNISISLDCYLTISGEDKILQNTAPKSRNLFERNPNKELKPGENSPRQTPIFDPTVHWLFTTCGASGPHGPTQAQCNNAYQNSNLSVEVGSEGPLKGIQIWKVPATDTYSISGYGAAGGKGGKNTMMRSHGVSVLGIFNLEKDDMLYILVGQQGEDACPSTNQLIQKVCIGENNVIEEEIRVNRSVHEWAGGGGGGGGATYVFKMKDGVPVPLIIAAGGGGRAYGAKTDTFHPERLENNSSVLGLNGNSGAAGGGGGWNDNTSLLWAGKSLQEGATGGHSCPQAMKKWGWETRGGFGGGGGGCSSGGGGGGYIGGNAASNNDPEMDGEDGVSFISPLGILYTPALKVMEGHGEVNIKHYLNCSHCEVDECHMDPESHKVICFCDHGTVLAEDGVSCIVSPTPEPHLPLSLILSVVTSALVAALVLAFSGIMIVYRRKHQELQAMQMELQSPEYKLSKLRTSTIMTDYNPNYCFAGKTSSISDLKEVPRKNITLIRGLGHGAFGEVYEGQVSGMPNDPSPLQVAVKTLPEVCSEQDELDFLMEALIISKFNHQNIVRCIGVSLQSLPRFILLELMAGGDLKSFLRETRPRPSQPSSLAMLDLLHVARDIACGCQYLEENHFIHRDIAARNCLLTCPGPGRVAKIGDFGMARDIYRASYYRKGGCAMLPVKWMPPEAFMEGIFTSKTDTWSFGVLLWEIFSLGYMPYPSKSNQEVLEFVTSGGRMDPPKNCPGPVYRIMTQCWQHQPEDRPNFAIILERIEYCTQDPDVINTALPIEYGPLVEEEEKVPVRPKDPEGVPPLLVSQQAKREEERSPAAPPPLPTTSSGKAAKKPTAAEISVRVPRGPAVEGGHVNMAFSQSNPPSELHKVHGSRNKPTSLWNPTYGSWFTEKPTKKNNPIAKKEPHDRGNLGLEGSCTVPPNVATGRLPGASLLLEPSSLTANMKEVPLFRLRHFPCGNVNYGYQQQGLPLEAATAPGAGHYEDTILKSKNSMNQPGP
T5 sequence (P42685 whole entry): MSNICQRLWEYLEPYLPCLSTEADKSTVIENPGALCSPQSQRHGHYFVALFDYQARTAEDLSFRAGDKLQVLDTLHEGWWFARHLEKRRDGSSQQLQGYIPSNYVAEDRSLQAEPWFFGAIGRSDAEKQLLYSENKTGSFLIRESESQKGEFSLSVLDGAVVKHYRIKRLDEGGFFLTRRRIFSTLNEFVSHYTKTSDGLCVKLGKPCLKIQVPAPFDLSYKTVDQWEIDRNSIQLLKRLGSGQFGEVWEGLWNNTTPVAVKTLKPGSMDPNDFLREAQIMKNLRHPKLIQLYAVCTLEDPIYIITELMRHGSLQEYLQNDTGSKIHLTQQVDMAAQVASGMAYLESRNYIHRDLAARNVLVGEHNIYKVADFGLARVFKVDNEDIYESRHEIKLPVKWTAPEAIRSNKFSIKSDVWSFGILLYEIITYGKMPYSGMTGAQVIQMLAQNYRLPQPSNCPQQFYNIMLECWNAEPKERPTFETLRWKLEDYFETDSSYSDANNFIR

Turning to `C=CC(=O)Nc1cc(Nc2nccc(-c3c4n(c5ccccc35)CCCC4)n2)c(OC)cc1N(C)CCN(C)C` [SH-1028], the inhibition at 1 µM in assay [1] came to 46%; in assay [2] it was 85%; in [3], 58%; in assay [4], 55%; in [5], 39%; in assay [6], 67%. The figures for the inhibition at 1 µM in [7], in assay [8] and in assay [9] were 84%, 46% and 83%, respectively. In addition, the IC50 in assay [1] turned out to be 737 nM; in assay [2] it was 79 nM; in [3], 349 nM; in assay [4] it was 400 nM; in assay [5], 644 nM; in assay [6], 232 nM. Also, the concentration for half-maximal inhibition (IC50) in assay [7] was 104 nM; in [8], 557 nM; in assay [9], 143 nM.
For `C=CC(=O)Nc1cc(Nc2nccc(-c3c4n(c5ccccc35)CCCC4)n2)c(OC)cc1N(C)CCNC` [Imp3], the inhibition at 1 µM is 73% in assay [1]; 92% in assay [2]; 67% in assay [3]; 68% in assay [4]; 64% in [5]; 82% in [6]. Besides, the inhibition at 1 µM in assay [7] is 98%; in assay [8], 74%; in assay [9] it was 85%. In addition, the IC50 in [1] amounted to 486 nM; in assay [2], 53 nM; in [3], 506 nM; in assay [4], 597 nM; in assay [5], 736 nM; in assay [6] it was 276 nM. Further, the values for the IC50 in [7], in assay [8] and in assay [9] were 73 nM, 309 nM and 229 nM, respectively.

What is called inhibition is the share of the control response that was lost under treatment. Usually IC50 stands for the midpoint of a concentration-inhibition curve.
